Source: US20100311109A1, “NON-CONTACT METHOD FOR Q[…] IN THE DYNAMICS OF MICROBIAL POPULATIONS” (priority 2009, published 2010)

Tested on: E. coli
Assay: Time-kill study of E. coli exposed to ciprofloxacin, measured by infrared thermography (Energy Number)
Type: cell-based, Escherichia coli
Conditions: starting inoculum approx. 2×10^6 CFU/ml, 37° C., 0-24 hours
Protocol: It was desired to evaluate utility of the system in a real-time method to measure bacterial growth and death as a function of exposure to an antimicrobial. For that purpose, time-kill studies were performed using E. coli cultures, established substantially as set forth in Example 2. A series of microtiter plates were inoculated with an overnight culture of a representative gram-negative E. coli strain to achieve a starting inoculum of approximately 2×10^6 CFU/ml per well. Test wells were exposed to nine concentrations of an antimicrobial agent of a representative fluoroquinolone (ciprofloxacin) ranging from 0- to 32-fold minimum inhibitory concentration (MIC). […] of those treatments (0, […], 1, 2, 4, and 8-fold MIC) were subcultured for determination of viable cell counts. Control wells received no ciprofloxacin. […] Post-imaging, the contents of the designated wells were removed and the number of viable bacteria in each well was determined using drop and filter count methods.
FIGS. 7a and 7b set forth the changes in bacterial viable counts and the Energy Number of the medium over time, respectively. The Energy Number of the medium over time as determined from thermodynamic modeling of the IR images collected by the detector was highly correlated (R^2=0.9891) to the viable counts obtained following 24 hr incubation (see FIG. 7c).

Q: What does the source list for `O=C(O)c1cn(C2CC2)c2cc(N3CCNCC3)c(F)cc2c1=O` [ciprofloxacin]?
A: IRT time-kill result (Energy Number over time) (highest (16.0 and 32.0-fold MIC) concentration): rapid bacterial killing; IRT time-kill result (Energy Number over time) (lowest (0.125 and 0.25-fold MIC) concentration): net bacterial growth
